Experimental data: patent US6133313A, “Insecticidal avocadofurans and triolein” (The Regents of the University of California, priority 1998, dated 2000)
“Also recorded” adds a separate entry of the source.

How the values were obtained:
Assay type in all cases: in vivo, Spodoptera exigua
[1] = system: neonate S. exigua; experiment: individual toxicity of avocadofurans and triolein in artificial diet; details: for Relative Growth Index (RGI) (FIG. 10): increasing concentrations
Protocol: In this study, individual activity of avocadofurans was investigated quantitatively. For this purpose, eight concentrations of the avocadofurans (1) and (4) and triolein (8) were tested. Results are seen in FIG. 6.
Following pilot studies, eight concentrations of each were tested: 0, 0.5, 1, 1.5, 2, 2.5, 3, and 3.5 μmoles g^~1 diet. Also, five concentrations of triolein were tested: 0; 1,000; 2,000; 3,000; and 4,000 μg g^~1 diet. Because triolein was not compared to a structurally similar compound, a more standard dietary formulation of μg g-^1 was used rather than ^~ moles g^-1 in all triolein-treated bioassays.
Treated and control diet were prepared as described above. For each concentration the compounds were dissolved in 10 ml of Tween solution and mixed using an ultrasonic homogenizer. Untreated diet was added to make a total of 100 g and then vortexed for 3 mm. Control diet was prepared by mixing 10 ml of the Tween solution with 90 g of artificial diet to produce a final weight of 100 g. Control and treated diets were poured into 30 ml plastic cups. One neonate was placed in each cup and cups were held in an incubator. Fifteen larvae were tested at each concentration, and assays were replicated 4 times (total of 60 larvae/treatment). For each diet treatment, 9-d larval instar and weight, pupal weights, times to pupation, and larval mortality were recorded.
(§1) EC (effective concentration) values were calculated by subtracting the mean larval weight for each treatment from the mean weight of the controls, and dividing by the mean weight of the controls. LC (lethal concentration) values were obtained using probit analysis as described in Probit Analysis (1971) Cambridge University Press, Cambridge, UK. GI (growth index) and RGI (relative growth index) values were calculated as described in J. Chem. Ecol., 19:1109 (1993), but using an imax of 3 (the stage attained by most control larvae after 7 d). Statistical comparisons were conducted using SuperAnova Abacus Concept Inc., Berkeley, Calif. (1989).

[2] = system: S. exigua; experiment: synergistic/joint toxicity of avocadofuran and triolein combinations; details: for Weight, 9-d larvae / Weight, Pupae: mean ± spread; for Developmental times: neonate-pupa, in d (unit assumed)
Excerpt: The treatments were as follows: Control, 2-(pentadecyl)furan, 2-(heptadecyl)furan, triolein, individually, and 2-(pentadecyl)furan combined with 2-(heptadecyl)furan and triolein, 2-(pentadecyl)furan combined with triolein, and 2-(heptadecyl)furan combined with triolein. Because the combined LC25 s for both avocadofurans exceed their LC50 values, a concentration for each was adjusted so that when added it would approximate the value of the avocadofurans LC50 (see Table 2). These concentrations were used whenever both avocadofurans were combined in the same treatment. Treatments were replicated four times, with 15 larvae per replicate to a total of 60 larvae/treatment.
Joint effects were determined by testing all combinations of LC25 s (estimated from probit lines shown in Table 1) of the three compounds for toxicity to S. exigua. The treatments were: control, 2-(pentadecyl)furan, 2-(heptadecyl)furan, triolein, 2-(pentadecyl)furan+triolein, 2-(heptadecyl)furan+triolein, and 2-(pentadecyl)furan+2-(heptadecyl)furan+triolein. Because the combined LC25 s for both avocadofurans exceeded their LC50 values (due to a steep slope of their LC lines), a concentration for each was used so that when added together it would approximate the value of the avocadofurans LC50 (Table 1). These concentrations were used whenever both avocadofurans were combined in the same treatment.
Treatments were replicated four times, with 15 larvae per replicate (total of 60 larvae/treatment). Dietary treatment preparations and bioassay procedures were conducted as described in Example 4. For each diet treatment, 9-d larval instar and weight, pupal weights, times to pupation, and larval mortality were recorded.

[3] = system: S. exigua larvae; experiment: growth inhibition and mortality of synthetic avocadofurans and triolein in diet bioassay; set-up: key to GI (growth index): growth index calculated per J. Chem. Ecol. 19:1109 (1993), imax = 3; details: for 7-d Instar / 7-d Larval Weight: mean ± SE; for inhibition of larval growth / comparative toxicity and growth inhibition: in words; for Relative Growth Index (RGI) vs log concentration regression (FIG. 4): log (μg/g)
Protocol: S. exigua larvae were used in all experiments. Larvae were reared on artificial diet modified from U.S.D.A. Agric. Res. Serv., Prod. Res. Rep., 1208:1 (1969), and maintained at 28+2° C., 14:10; light:dark (L:D) photoperiod.
The colony was collected from Orange Co., Calif. and had new genetic material added within 12 months prior to the study. The age of the cohorts tested was standardized by using neonates within 12 hours of eclosion. All bioassays were maintained at 28+2° C. 75% relative humidity (RH), and at 14:10 (L:D) photoperiod with fluorescent lighting.
The insecticidal activity of the fractions was tested with artificial diet bioassays. Treated diets were prepared by transferring 750 μl of acetone solutions of each fraction (equivalent to 300 mg crude idioblast cell oil) into 50-ml polypropylene centrifuge tubes (Fisher, Pittsburgh Pa.), evaporating the acetone, adding 2 ml of 0.1% Tween-80 solution (Fisher), homogenizing with an ultrasonic homogenizer (Co le-Parmer, Chicago Ill.), and adding prepared diet to produce a final weight of 15 g containing the equivalent of 2% idioblast oil. The mixture was vortexed for 3 mm.
Control diet was prepared by mixing 2 ml of Tween solution and 13 g of artificial diet to produce a final weight of 15 g. Control and treated diets were poured into 24-well (15.9 mm diameter and 15.9 mm depth) bioassay trays (C-D International Inc., Pitman N.J.). One neonate was added per well, and trays were placed in an incubator under the previously described conditions. Twenty-four neonates were tested for each fraction and control. Mortality and larval weights were recorded after 7 days.
The effect of the synthetically produced avocado furan compounds (>95% purity) and commercially available triolein (Sigma, St. Louis, Mo.) were tested on larval growth and mortality of S exigua. Treated and control diet were prepared as previously described.
Six different compound concentrations, chosen on the basis of studies with the oil fractions, were evaluated for both 2-(pentadecyl)furan and 2-(heptadecyl)furan: 0 (control), 600, 750, 900, 1050, and 1200 μg/g. Also, six concentrations of triolein (subfraction 1-1-12) were tested: 0 (control), 7000, 8000, 9000, 10000, and 11000 μg/g.
Twenty-four neonates were used per treatment. Bioassays were conducted as described in Example 4, and replicated 4 times for each concentration (i.e., a total of 96 larvae were tested for each concentration). Larval weight, instar, and mortality were recorded after 7 days […].
as §1

[4] = lowest concentration vs controls
[5] = Spodoptera exigua, feed or water, 168 h

## CCCCCCCCCCCCCCCc1ccco1 [2-(pentadecyl)furan (1), 2-(pentadecyl)furan]
[1]; 1.5 μmoles g^-1 or higher, 9 d
  growth inhibition (FIG. 6A): more than 50%
[1]; avocadofurans, larval stage
  LC25 (95% FL): 1.76(1.55-1.93) μmoles g^-1 of diet
  LC50 (95% FL): 2.24(2.08-2.39) μmoles g^-1 of diet
[1]; in words
  effect on pupal weight (FIG. 7): significantly reduced
  larval developmental time from neonate to pupa (FIG. 8): significantly prolonged
  Relative Growth Index (RGI) (FIG. 10): decreased with increasing concentrations
[1]; larval stage
  LC50: 2.2 μmoles g^-1 diet
[1]; [4]
  concentration significantly reducing 9-day larval weight (FIG. 6A): ≥ 1.5 µmol/g
  concentration significantly reducing pupal weight (FIG. 7A): ≥ 3 µmol/g
[2]; in vivo
  Mortality (%) using LC25: 36.7%
  Survival to pupation: 63.3%
[2]
  Weight, 9-d larvae: 22.4 ± 2.9 mg
  Weight, Pupae: 104.3 ± 3.2 mg
  Developmental times: 19.8 ± 0.7
[3]; 600 μg/g
  GI (growth index): 0.69
  percent reduction in larval weight vs control: 72.89%
  7-d Instar: 2.29 ± 0.07
  7-d Larval Weight: 8.50 ± 0.95 mg
[3]; 750 μg/g
  GI (growth index): 0.55
  percent reduction in larval weight vs control: 85.83%
  7-d Instar: 2.04 ± 0.07
  7-d Larval Weight: 4.44 ± 0.45 mg
[3]; 900 μg/g
  GI (growth index): 0.26
  percent reduction in larval weight vs control: 90.35%
  7-d Instar: 1.74 ± 0.07
  7-d Larval Weight: 3.03 ± 0.35 mg
[3]; 1050 μg/g
  GI (growth index): 0.25
  percent reduction in larval weight vs control: 95.50%
  7-d Instar: 1.61 ± 0.07
  7-d Larval Weight: 1.41 ± 0.15 mg
[3]; 1200 μg/g
  GI (growth index): 0.15
  percent reduction in larval weight vs control: 95.78%
  7-d Instar: 1.56 ± 0.09
  7-d Larval Weight: 1.32 ± 0.19 mg
[3]; Spodoptera exigua, feed or water, 168 h, 600 μg/g, 7 d
  mortality at 600 µg/g: 9.37%
[3]; Spodoptera exigua, feed or water, 168 h, 750 μg/g, 7 d
  mortality at 750 µg/g: 18.8%
[3]; Spodoptera exigua, feed or water, 168 h, 900 μg/g, 7 d
  mortality at 900 µg/g: 32.3%
[3]; Spodoptera exigua, feed or water, 168 h, 1050 μg/g, 7 d
  mortality at 1050 µg/g: 54.2%
[3]; Spodoptera exigua, feed or water, 168 h, 1200 μg/g, 7 d
  mortality at 1200 µg/g: 71.9%
[3]; concentrations above 600 μg/g
  reduction of larval development: > 70%
[3]; in diet
  LC50 (95% FL): 1031 µg/g
[3]
  inhibition of larval growth: significantly inhibited larval growth
  Relative Growth Index (RGI) vs log concentration regression (FIG. 4): y=5.66-1.79*log(x), r^2 =0.94
[3]; listed as 1
  comparative toxicity and growth inhibition: more toxic and growth inhibitory to S. exigua than either of the unsaturated compounds (2) and (6); also recorded: the most toxic
[3]; listed as 2-(pentadecyl)furan
  comparative toxicity and growth inhibition: most active of the two major compounds from that subfraction

## CCCCCCCC/C=C\CCCCCCCC(=O)OCC(COC(=O)CCCCCCC/C=C\CCCCCCCC)OC(=O)CCCCCCC/C=C\CCCCCCCC [Triolein (8), triolein]
[1]; 2,000 μg g^-1 or higher
  reduction of 9-d larval weight (FIG. 6B): more than 35%
[1]; in words
  comparative toxic and inhibitory effect: inhibitory at concentrations much higher than either of the avocadofurans tested in this assay
  effect on larval mortality (FIG. 9): increases larval mortality
  effect on pupal weight (FIG. 7): no effect on larval developmental time and pupal weight
  larval developmental time from neonate to pupa (FIG. 8): not significantly prolonged; also recorded: no effect on larval developmental time
  Relative Growth Index (RGI) (FIG. 10): decreased with increasing concentrations
[1]; [4]
  concentration significantly reducing 9-d weight (FIG. 6B): ≥ 2,000 μg g^-1
[1]; triolein, larval stage
  LC25 (95% FL): 1,900(1,304-2,339) μg g^-1 of diet
[1]; triolein, larval stage, in diet, listed as Triolein
  LC50 (95% FL): 3,631(2,979-5,203) μg g^-1
[1]; triolein, larval stage, in diet, listed as triolein
  LC50 (95% FL): 3,631 μg g^-1
[2]; in vivo
  Survival to pupation: 83.3%
[2]
  Weight, 9-d larvae: 111.8 ± 10.3 mg
  Weight, Pupae: 116.4 ± 3.7 mg
  Developmental times: 15.3 ± 0.4
[2]; single substance, at estimated LC25
  Mortality (%) using LC25: 16.7%
[3]; 7000 μg/g
  EC (effective concentration; weight reduction vs control): 65.43%
  GI (growth index): 0.64
  7-d Instar: 2.35 ± 0.08
  7-d Larval Weight: 10.84 ± 1.42 mg
[3]; 8000 μg/g
  EC (effective concentration; weight reduction vs control): 43.64%
  GI (growth index): 0.67
  7-d Instar: 2.70 ± 0.10
  7-d Larval Weight: 17.67 ± 2.05 mg
[3]; 9000 μg/g
  EC (effective concentration; weight reduction vs control): 84.44%
  GI (growth index): 0.39
  7-d Instar: 1.91 ± 0.08
  7-d Larval Weight: 4.88 ± 0.65 mg
[3]; 10000 μg/g
  EC (effective concentration; weight reduction vs control): 81.52%
  GI (growth index): 0.37
  7-d Instar: 1.87 ± 0.10
  7-d Larval Weight: 5.79 ± 0.96 mg
[3]; 11000 μg/g
  EC (effective concentration; weight reduction vs control): 71.85%
  GI (growth index): 0.28
  7-d Instar: 1.95 ± 0.13
  7-d Larval Weight: 8.82 ± 2.22 mg
[3]; [5]
  mortality at 7000 µg/g: 18.8%
  mortality at 8000 µg/g: 26%
  mortality at 9000 µg/g: 40.6%
  mortality at 10000 µg/g: 42.7%
  mortality at 11000 µg/g: 59.4%
[3]; in diet
  LC50 (95% FL): 10364 µg/g
[3]; in vivo
  level in artificial diet at which toxicity is exhibited: about 1%
[3]
  inhibition of larval growth: significantly inhibited larval growth at relatively high concentrations
  Relative Growth Index (RGI) vs log concentration regression (FIG. 4): y=7.68-1.83*log(x), r^2 =0.86
[3]; lowest concentration, in diet
  concentration significantly reducing larval weight and development: ≥ 7000 µg/g

## CCCCC/C=C\C/C=C\CCCCCCCc1ccco1 [2-(8Z,11Z-heptadecadienyl)furan]
[3]; 1600 μg/g
  inhibition of S. exigua growth compared to control larvae: 54.51%
[3]; Spodoptera exigua, feed or water, 1600 μg/g
  mortality at 1600 µg/g: < 5%
[3]; in vivo
  active concentration relative to the saturated compound (4): twice as high as the saturated compound (4)
[3]
  comparative toxicity and growth inhibition: of much lower toxicity than 2-(heptadecyl)furan (4)
[3]; lowest active concentration, in diet
  concentration at which S. exigua growth is inhibited / compound active: ≥ 1600 µg/g
